# Laboratory results reported in US8779161B2, “Asenapine maleate” (Dr. Reddy's Laboratories Limited, priority 2010, dated 2014).
# Key:
# [1] = starting with the monoclinic form; WO 2006/106135 A1, Examples 9 and 10 therein; cited from earlier work
# [2] = Micronization of asenapine maleate monoclinic form: polymorphic form by PXRD after micronizing; type: physicochemical; settings: Midas Micronizer 50, nitrogen carrier gas, 4-6 Kg/cm^2; compared with reference pattern of monoclinic polymorph
# Protocol: All PXRD data reported herein are obtained using a Bruker AXS D8 Advance Powder X-ray Diffractometer or a PANalytical X-ray Diffractometer, using copper Kα radiation. Generally, a diffraction angle (2θ) in powder X-ray diffractometry may have permissible variation in the range of ±0.2°. Although the intensities of peaks in the x-ray powder diffraction patterns of different batches of a compound may vary slightly, the peaks and the peak locations are characteristic for a specific polymorphic form. The relative intensities of the PXRD peaks can vary depending on the sample preparation technique, crystal size distribution, various filters used, the sample mounting procedure, and the particular instrument employed. Moreover, instrument variation and other factors can affect the 2-theta values. Therefore, the term “substantially” in the context of PXRD is meant to encompass that peak assignments can vary by plus or minus about 0.2° 2-theta.
# [3] = Particle size distribution d(10), d(50), d(90); type: physicochemical
# Source text: For example, particle size distributions of asenapine maleate particles may be measured using microscopy or light scattering equipment, such as, for example, a Malvern Master Size 2000 from Malvern Instruments Limited, Malvern, Worcestershire, United Kingdom. The particle size distributions can be expressed, for example, in terms of d(90), d(50), and d(10) values, where the values (e.g., expressed in μm) are the maximum sizes for 90, 50, and 10 percent of the particles, respectively.
# Polymorphs are different solids sharing the same molecular formula, yet having distinct physical properties when compared to other polymorphs of the same formula. As used throughout the disclosure, the D(10), D(50), and D(90) values are useful ways for indicating a particle size distribution. D(90) refers to at least 90 volume percent of the particles having a size smaller than the said value. Likewise, D(10) refers to 10 volume percent of the particles having a size smaller than the said value. D(50) refers to 50 volume percent of the particles having a size smaller than the said value. Methods for determining D(10), D(50), and D(90) include laser diffraction, such as using equipment from Malvern Instruments Ltd. of Malvern, Worcestershire, United Kingdom. HPLC is High Pressure Liquid Chromatography.
# [4] = after micronization, Midas Micronizer 50, nitrogen 4-6 Kg/cm^2
# [5] = before micronization (as isolated)
Structure (SMILES),"particle size distribution d(10) [3, 4] [μm]","particle size distribution d(50) [3, 4] [μm]","particle size distribution d(90) [3, 4] [μm]","particle size distribution d(10) [3, 5] [μm]","particle size distribution d(50) [3, 5] [μm]","particle size distribution d(90) [3, 5] [μm]",polymorphic form obtained after micronization [1],PXRD Pattern after Micronizing [2]
"CN1C[C@H]2c3ccccc3Oc3ccc(Cl)cc3[C@@H]2C1.O=C(O)/C=C\C(=O)O [form H, asenapine maleate]",–,–,–,–,–,–,"Either the monoclinic form, or the orthorhombic form or a mixture of polymorphs was obtained",–
"CN1C[C@H]2c3ccccc3Oc3ccc(Cl)cc3[C@@H]2C1.O=C(O)/C=C\C(=O)O [Example 13, Asenapine Maleate]",0.887,4.632,10.678,6.269,35.229,80.698,–,complies with reference pattern of monoclinic polymorph
"CN1C[C@H]2c3ccccc3Oc3ccc(Cl)cc3[C@@H]2C1.O=C(O)/C=C\C(=O)O [Example 26, Asenapine Maleate]",–,–,–,–,–,88,–,–

# The next lines start with results.
"particle size distribution d(10) [3, 4] [μm]","particle size distribution d(50) [3, 4] [μm]","particle size distribution d(90) [3, 4] [μm]","particle size distribution d(10) [3, 5] [μm]","particle size distribution d(50) [3, 5] [μm]","particle size distribution d(90) [3, 5] [μm]",Structure (SMILES),polymorphic form obtained after micronization [1],PXRD Pattern after Micronizing [2]
–,–,–,4.38,14.42,33.11,"CN1C[C@H]2c3ccccc3Oc3ccc(Cl)cc3[C@@H]2C1.O=C(O)/C=C\C(=O)O [Example 15, Asenapine Maleate Monoclinic Form]",–,–
0.994,5.516,12.715,5.671,24.077,58.716,"CN1C[C@H]2c3ccccc3Oc3ccc(Cl)cc3[C@@H]2C1.O=C(O)/C=C\C(=O)O [Example 11, Asenapine Maleate Monoclinic Form]",–,–
